Reference: patent publication US20050255097A1, “Modified venom and venom components as anti-retroviral agents” (priority 2004, published 2005)

Experiments:
[1] = tested on: T cells from peripheral blood; conditions: Mizuno, et al., 1982; cited from earlier work
[2] = format: cell-based; conditions: virus not specified
[3] = pI and pH of protein solutions; format: physicochemical
Semliki Forest virus = assay: Antiviral activity against Semliki Forest virus (plaque assay); format: cell-based
Excerpt: Alternatively, an enzyme linked immunosorbant assay (ELISA) can evaluate loss of toxicity, as well as potential potency in terms of continued ability to bind to the nAchR. […] This enables a measurement of the depression in binding of the modified neurotoxin to nAchR, indicative of loss of toxicity, while simultaneously indicating a continued ability of the modified toxin to bind to the nAchR providing a measure of potency (Raymond; unpublished data). To test the effectiveness, or potency of detoxified venom, Sanders utilized a plaque assay with Semliki Forest virus (Miller, et al., 1977).

herpesvirus = assay: Antiviral activity against herpes virus; format: cell-based
mice = format: in vivo
Excerpt: Administration of a highly toxic substance such as cobratoxin for therapeutic purposes is fraught with obvious difficulties, even when highly diluted. As a diluted substance, its potential effectiveness is reduced, and due to its high affinity for the nAchR, continued use could result in accumulation of the toxin at neuromuscular junctions and the diaphragm with the potential for adverse events. Alpha cobratoxin, of the Thailand cobra, Naja naja kaouthia, is a homogeneous non-glycosylated polypeptide composed of 71 amino acids with a molecular weight of 7821d and a pI of 9.6. Detoxification of alpha-cobratoxin can be achieved by exposure to heat, formamide, hydrogen peroxide, perchloric acid, ozone or other oxidizing agents. The result of exposure of cobratoxin to oxidizing agents is modification of amino acid side chains as well as the lysis of one or more disulfide bonds. […] The procedures used for detoxification described here are based upon the work of Sanders, who preferred the use of hydrogen peroxide (Sanders, et al., 1975). Loss of toxicity by oxidized alpha-neurotoxins (MCTX), as cobratoxin, can be determined by the intraperitoneal (IP) injection of excess levels of the modified protein into mice. […]
The endpoint of the above reactions are most easily determined by assessing the toxicity of the preparation in mice. […]

## C[N+](C)(C)CCOC(N)=O.[Cl-] [carbamylcholine chloride]
[1]
  decrease of E-rosette formation: 30%-40%

## alpha-cobratoxin: native non-glycosylated polypeptide of 71 amino acids from the Thailand cobra, Naja naja kaouthia
[2]
  antiviral activity: does not demonstrate antiviral activity
[3]
  pH of solution: 8.5
  pI: 9.6
Semliki Forest virus
  antiviral activity against Semliki Forest virus: does not have any antiviral activity
herpesvirus
  antiviral activity against herpes: does not have any antiviral activity
mice; injected subcutaneously or intraperitoneally, death observable within hours
  LD50 in mice: 1.2 µg
mice; injection of 1.5 mcg, 25 g mouse
  time to death: ≤ 25 min
